The values that follow come from patent US10208019B2, “GLP-1 receptor agonists and uses thereof” (Pfizer Inc., priority 2016, dated 2019).

Assay [1] deals with human GLP-1R (Homo sapiens, UniProt P43220, G168S). Nature of the assay: CHO GLP-1R Clone H6—Assay 1: HTRF cAMP cell-based functional agonist assay (high GLP-1R density). Particulars: for EC50: CHO GLP-1R Clone H6, cAMP HTRF, geometric mean; for Emax: read-out: Assay 1 Emax (%), CHO GLP-1R Clone H6. In general terms: TR-FRET usually uses a lanthanide donor and a delayed reading to cut background.
Chain of human GLP-1R (Homo sapiens, UniProt P43220, G168S) (P43220 24-463 G168S limits assumed): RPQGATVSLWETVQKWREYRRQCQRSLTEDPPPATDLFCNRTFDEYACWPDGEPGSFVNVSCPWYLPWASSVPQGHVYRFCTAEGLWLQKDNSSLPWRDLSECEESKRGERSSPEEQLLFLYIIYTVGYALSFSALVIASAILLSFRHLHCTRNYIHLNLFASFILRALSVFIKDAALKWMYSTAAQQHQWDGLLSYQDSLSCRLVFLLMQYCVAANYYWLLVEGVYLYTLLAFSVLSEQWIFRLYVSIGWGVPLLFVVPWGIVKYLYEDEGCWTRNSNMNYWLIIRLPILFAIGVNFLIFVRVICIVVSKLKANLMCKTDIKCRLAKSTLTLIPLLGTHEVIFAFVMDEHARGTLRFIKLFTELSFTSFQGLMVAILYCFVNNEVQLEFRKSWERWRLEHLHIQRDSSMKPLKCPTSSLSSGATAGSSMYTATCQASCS
Protocol: GLP-1R-mediated agonist activity was determined with a cell-based functional assay utilizing an HTRF (Homogeneous Time-Resolved Fluorescence) cAMP detection kit (cAMP HI Range Assay Kit; CisBio cat #62AM6PEJ) that measures cAMP levels in the cell. The method is a competitive immunoassay between native cAMP produced by the cells and exogenous cAMP labeled with the dye d2. The tracer binding is visualized by a mAb anti-cAMP labeled with Cryptate. The specific signal (i.e. energy transfer) is inversely proportional to the concentration of cAMP in either standard or experimental sample.
The human GLP-1R coding sequence (NCBI Reference Sequence NP_002053.3, including naturally-occurring variant Gly168Ser) was subcloned into pcDNA3 (Invitrogen) and a cell line stably expressing the receptor was isolated (designated Clone H6).
Cells were removed from cryopreservation, re-suspended in 40 mL of Dulbecco's Phosphate Buffered Saline (DPBS-Lonza Cat #17-512Q) and centrifuged at 800×g for 5 min at 22° C. The cell pellet was then re-suspended in 10 mL of growth medium [DMEM/F12 1:1 Mixture with HEPES, L-Gln, 500 mL (DMEM/F12 Lonza Cat #12-719F), 10% heat inactivated fetal bovine serum (Gibco Cat #16140-071), 5 mL of 100× Pen-Strep (Gibco Cat #15140-122), 5 mL of 100× L-Glutamine (Gibco Cat #25030-081) and 500 μg/mL Geneticin (G418) (Invitrogen #10131035)]. A 1 mL sample of the cell suspension in growth media was counted on a Becton Dickinson ViCell to determine cell viability and cell count per mL. The remaining cell suspension was then adjusted with growth media to deliver 2000 viable cells per well using a Matrix Combi Multidrop reagent dispenser, and the cells were dispensed into a white 384 well tissue culture treated assay plate (Corning 3570). The assay plate was then incubated for 48 hours at 37° C. in a humidified environment in 5% carbon dioxide.
Varying concentrations of each compound to be tested (in DMSO) were diluted in assay buffer (HBSS with Calcium/Magnesium (Lonza/BioWhittaker cat #10-527F)/0.1% BSA (Sigma Aldrich cat #A7409-1L)/20 mM HEPES (Lonza/BioWhiftaker cat #17-737E) containing 100 μM 3-isobutyl-1-methylxanthin (IBMX; Sigma cat #15879). The final DMSO concentration is 1%.
After 48 hours, the growth media was removed from the assay plate wells, and the cells were treated with 20 μL of the serially diluted compound in assay buffer for 30 minutes at 37° C. in a humidified environment in 5% carbon dioxide. Following the 30 minute incubation, 10 μL of labeled d2 cAMP and 10 μL of anti-cAMP antibody (both diluted 1:20 in cell lysis buffer; as described in the manufacturer's assay protocol) were added to each well of the assay plate. The plates were then incubated at room temperature and after 60 minutes, changes in the HTRF signal were read with an Envision 2104 multi-label plate reader using excitation of 330 nm and emissions of 615 and 665 nm. Raw data were converted to nM cAMP by interpolation from a cAMP standard curve (as described in the manufacturer's assay protocol) and the percent effect was determined relative to a saturating concentration of the full agonist GLP-17-36 (1 μM) included on each plate. EC50 determinations were made from agonist dose-response curves analyzed with a curve fitting program using a 4-parameter logistic dose response equation.

The target of assay [2] is human GLP-1R (Homo sapiens (Human), UniProt P43220, L260F). Nature of the assay: CHO GLP-1R Clone C6—Assay 2: HTRF cAMP cell-based functional agonist assay (low GLP-1R density). Particulars: for EC50: CHO GLP-1R Clone C6, cAMP HTRF, geometric mean; for Emax: read-out: Assay 2 Emax (%).
Chain of human GLP-1R (Homo sapiens (Human), UniProt P43220, L260F) (P43220 24-463 L260F): as the sequence (P43220 24-463 G168S limits assumed) above, with S145G, L237F counted along it
Where [3] appears, read: relative to saturating concentration of full agonist GLP-1 (1 μM), arithmetic mean.
Setting [4] is: CHO GLP-1R Clone C6, relative to saturating concentration of full agonist GLP-1 (1 μM), arithmetic mean.

The structures appear in SMILES notation. Where two headings read alike, the source gives them in different places.

One may read the EC50 as the concentration giving half of the maximal effect. What is called Emax is the size of the effect at its maximum, as opposed to the concentration needed. With `Cn1ncnc1Cn1c(CN2CCC(c3cccc(OCc4ccc(Cl)cc4F)n3)CC2)nc2ccc(C(=O)O)cc21` [Example 11A-33, 2-[(4-{6-[(4-chloro-2-fluorobenzyl)oxy]pyridin-2-yl}piperidin-1-yl)methyl]-1-[(1-methyl-1H-1,2,4-triazol-5yl)methyl]-1H-benzimidazole-6-carboxylic acid], the EC50 on human GLP-1R [1] (read-out: Assay 1 EC50) is 96 nM; at human GLP-1R [2] it was 1.4 µM. Also, the results for the maximal effect (Emax) at human GLP-1R [1] (setting [3]) and on human GLP-1R [2] (setting [4]) were 86% and 94%, respectively.
Taken in the same sequence, the figures for `CN1CCC[C@@H]1Cn1c(CN2CCC(c3cccc(OCc4ccc(Cl)cc4F)n3)CC2)nc2ccc(C(=O)O)cc21` [Example 11A-34, 2-[(4-{6-[(4-chloro-2-fluorobenzyl)oxy]pyridin-2-yl}piperidin-1-yl)methyl]-1-{[(2R)-1-methylpyrrolidin-2-yl]methyl}-1H-benzimidazole-6-carboxylic acid] were 110 nM, 3.5 µM, 70% and 95%.
Taken in the same sequence, the figures for `O=C(O)c1ccc2nc(CN3CCC(c4cccc(OCc5ccc(Cl)cc5F)n4)CC3)n(C[C@H]3CCCO3)c2c1` [Example 11A-68, 2-[(4-{6-[(4-chloro-2-fluorobenzyl)oxy]pyridin-2-yl}piperidin-1-yl)methyl]-1-[(2R)-tetrahydrofuran-2-ylmethyl]-1H-benzimidazole-6-carboxylic acid] were 63 nM, 2 µM, 78% and 82%.
With `O=C(O)c1ccc2nc(CN3CCC(c4cccc(OCc5ccc(Cl)cc5F)n4)CC3)n(Cc3ccon3)c2c1` [Example 11A-69, 2-[(4-{6-[(4-chloro-2-fluorobenzyl)oxy]pyridin-2-yl}piperidin-1-yl)methyl]-1-(1,2-oxazol-3-ylmethyl)-1H-benzimidazole-6-carboxylic acid], the EC50 is 5.3 nM at human GLP-1R [1] (read-out: Assay 1 EC50) and 0.021 µM at human GLP-1R [2]. In addition, the values for the Emax on human GLP-1R [1] (setting [3]) and on human GLP-1R [2] (setting [4]) were 76% and 84%, respectively.
Taken in the same sequence, the figures for `Cn1cncc1Cn1c(CN2CCC(c3cccc(OCc4ccc(Cl)cc4F)n3)CC2)nc2ccc(C(=O)O)cc21` [Example 11A-70, 2-[(4-{6-[(4-chloro-2-fluorobenzyl)oxy]pyridin-2-yl}piperidin-1-yl)methyl]-1-[(1-methyl-1H-imidazol-5-yl)methyl]-1H-benzimidazole-6-carboxylic acid] were 0.7 nM, 0.01 µM, 86% and 89%.
On the same counts, the results for `Cn1cnnc1Cn1c(CN2CCC(c3cccc(OCc4ccc(Cl)cc4F)n3)CC2)nc2ccc(C(=O)O)cc21` [Example 11A-71, 2-[(4-{6-[(4-chloro-2-fluorobenzyl)oxy]pyridin-2-yl}piperidin-1-yl)methyl]-1-[(4-methyl-4H-1,2,4-triazol-3-yl)methyl]-1H-benzimidazole-6-carboxylic acid] are 30 nM, 0.57 µM, 73% and 93%.
Taken in the same sequence, the figures for `Cn1nncc1Cn1c(CN2CCC(c3cccc(OCc4ccc(Cl)cc4F)n3)CC2)nc2ccc(C(=O)O)cc21` [Example 11A-72, 2-[(4-{6-[(4-chloro-2-fluorobenzyl)oxy]pyridin-2-yl}piperidin-1-yl)methyl]-1-[(1-methyl-1H-1,2,3-triazol-5-yl]methyl]-1H-benzimidazole-6-carboxylic acid] were 5 nM, 0.041 µM, 82% and 77%.
Turning to `O=C(O)c1ccc2nc(CN3CCC(c4cccc(OCc5ccc(Cl)cc5F)n4)CC3)n(CCC(F)(F)F)c2c1` [Example 11A-73, 2-[(4-{6-[(4-chloro-2-fluorobenzyl)oxy]pyridin-2-yl}piperidin-1-yl)methyl]-1-(3,3,3-trifluoropropyl)-1H-benzimidazole-6-carboxylic acid], the figures for the EC50 on human GLP-1R [1] (read-out: Assay 1 EC50) and on human GLP-1R [2] were 150 nM and 5.3 µM, respectively. Further, the Emax is 68% at human GLP-1R [1] (setting [3]) and 80% on human GLP-1R [2] (setting [4]).
On the same counts, the results for `CC[C@H]1CN(c2cccc(OCc3ccc(Cl)cc3F)n2)CCN1Cc1nc2ccc(C(=O)O)cc2n1CCOC` [Example 12A-07, 2-{[(2S)-4-{6-[(4-chloro-2-fluorobenzyl)oxy]pyridin-2-yl}-2-ethylpiperazin-1-yl]methyl}-1-(2-methoxyethyl)-1H-benzimidazole-6-carboxylic acid] are 37 nM, 1.2 µM, 69% and 83%.
Taken in the same sequence, the figures for `COCCn1c(CN2CCN(c3cccc(OCc4ccc(C#N)cc4)n3)C[C@@H]2C)nc2ccc(C(=O)O)cc21` [Example 12A-08, 2-{[(2S)-4-{6-[(4-cyanobenzyl)oxy]pyridin-2-yl}-2-methylpiperazin-1-yl]methyl}-1-(2-methoxyethyl)-1H-benzimidazole-6-carboxylic acid] were 6.1 nM, 0.15 µM, 89% and 97%.
On to `COCCn1c(CN2CCN(c3cccc(OCc4ccc(Cl)cc4F)n3)C[C@@H]2CO)nc2ccc(C(=O)O)cc21` [Example 12A-09], for which, at human GLP-1R [1] (CHO GLP-1R Clone H6, relative to saturating concentration of full agonist GLP-1 (1 μM), arithmetic mean), the “Assay 1 Emax (%)” value is reported as 79%. Also, the EC50 at human GLP-1R [1] (read-out: Assay 1 EC50) is 21 nM; on human GLP-1R [2], 0.54 µM. In addition, the “Assay 2 Emax (%)” value on human GLP-1R [2] (setting [4]) was found to be 80%.
With `COCCn1c(CN2CCN(c3cccc(OCc4ccc(Cl)cc4F)n3)C[C@@H]2C)nc2ccc(C(=O)O)cc21` [Example 12A-10, 2-{[(2S)-4-{6-[(4-chloro-2-fluorobenzyl)oxy]pyridin-2-yl}-2-methylpiperazin-1-yl]methyl]-1-(2-methoxyethyl)-1H-benzimidazole-6-carboxylic acid], the EC50 was determined as 6.9 nM at human GLP-1R [1] (read-out: Assay 1 EC50) and 0.17 µM on human GLP-1R [2]. The results for the maximal response (Emax) at human GLP-1R [1] (setting [3]) and on human GLP-1R [2] (setting [4]) were 78% and 96%, respectively.
Take `COCCn1c(CN2CCN(c3cccc(OCc4ccc(Cl)cc4F)n3)C[C@H]2C)nc2ccc(C(=O)O)cc21` [Example 12A-11, 2-{[(2R)-4-{6-[(4-chloro-2-fluorobenzyl)oxy]pyridin-2-yl}-2-methylpiperazin-1-yl]methyl}-1-(2-methoxyethyl)-1H-benzimidazole-6-carboxylic acid]: the EC50 on human GLP-1R [1] (Assay 1 EC50 (nM)) was 54 nM; on human GLP-1R [2], 2.1 µM. The Emax at human GLP-1R [1] (setting [3]) came out at 81%; on human GLP-1R [2] (setting [4]) it was 100%.
